The values that follow come from US9029391B2 (priority 2011, dated 2015).

The subject of this experiment is HIV. In words: MT4 Assay (anti-HIV activity). In kind it is cell-based. As to the method:
Antiviral HIV activity and cytotoxicity values for compounds of the invention from Table 1 were measured in parallel in the HTLV-1 transformed cell line MT-4 based on the method previously described (Hazen et al., 2007, In vitro antiviral activity of the novel, tyrosyl-based human immunodeficiency virus (HIV) type 1 protease inhibitor brecanavir (GW640385) in combination with other antiretrovirals and against a panel of protease inhibitor-resistant HIV (Hazen et al., “In vitro antiviral activity of the novel, tyrosyl-based human immunodeficiency virus (HIV) type 1 protease inhibitor brecanavir (GW640385) in combination with other antiretrovirals and against a panel of protease inhibitor-resistant HIV”, Antimicrob. Agents Chemother. 2007, 51: 3147-3154; and Pauwels et al., “Sensitive and rapid assay on MT-4 cells for the detection of antiviral compounds against the AIDS virus”, J. of Virological Methods 1987, 16: 171-185).
Luciferase activity was measured 96 hours later by adding a cell titer glo (Promega, Madison, Wis.). Percent inhibition of cell protection data was plotted relative to no compound control. Under the same condition, cytotoxicity of the compounds was determined using cell titer glo (Promega, Madison, Wis.). IC50s were determined from a 10 point dose response curve using 3-4-fold serial dilution for each compound, which spans a concentration range >1000 fold.

Setting [1] is: Human immunodeficiency virus 1, 96 h, read-out: HIV MT4 Assay IC50, HTLV-1 transformed cell line MT-4, cell titer glo, 10 point dose response curve.

Like-named read-outs stand apart in the source and are kept apart here.

A word on the IC50: it is the concentration needed to halve the response being measured. In the case of `Cc1c(-c2c([C@H](OC(C)(C)C)C(=O)O)n(C)c(=O)c3cc(CN4CCOCC4)ccc23)cc(F)c2c1CCCO2` (atropisomer, axis not shown; (M)) [Example 189, (S)(M)-2-(tert-butoxy)-2-(4-(8-fluoro-5-methylchroman-6-yl)-2-methyl-7-(morpholinomethyl)-1-oxo-1,2-dihydroisoquinolin-3-yl)acetic acid], under setting [1], the IC50 was determined as 40 nM. The same measure, in the same setting: then `Cc1occc1-c1ccc2c(-c3cc(F)c4c(c3C)CCCO4)c([C@H](OC(C)(C)C)C(=O)O)n(C)c(=O)c2c1` (atropisomer, axis not shown; (M)) [Example 203, (2S)(M)-[(1,1-dimethylethyl)oxy][4-(8-fluoro-5-methyl-3,4-dihydro-2H-chromen-6-yl)-2-methyl-7-(2-methyl-3-furanyl)-1-oxo-1,2-dihydro-3-isoquinolinyl]ethanoic acid], with 30 nM; and `Cc1c(-c2c(C(OC(C)(C)C)C(=O)O)n(C)c(=O)c3c(F)cccc23)ccc2c1CCCO2` (stereo not shown) [Example 83, 2-(tert-butoxy)-2-[8-fluoro-2-methyl-4-(5-methyl-3,4-dihydro-2H-1-benzopyran-6-yl)-1-oxo-1,2-dihydroisoquinolin-3-yl]acetic acid], with 500 nM; and `Cc1c(-c2c([C@H](OC3(C)CCC3)C(=O)O)n(C)c(=O)c3ccccc23)cc(F)c2c1CCCO2` (atropisomer, axis not shown; (M)) [Example 163, (2S)(M)-2-[4-(8-fluoro-5-methyl-3,4-dihydro-2H-1-benzopyran-6-yl)-2-methyl-1-oxo-1,2-dihydroisoquinolin-3-yl]-2-(1-methylcyclobutoxy)acetic acid], with 110 nM. As for `Cn1c(C(OC(C)(C)C)C(=O)O)c(-c2cccnc2)c2ccccc2c1=O` (stereo not shown) [Example 41, 2-(tert-butoxy)-2-[2-methyl-1-oxo-4-(pyridin-3-yl)-1,2-dihydroisoquinolin-3-yl]acetic acid], under setting [1], the IC50 was determined as 50000 nM.

In the case of `COCc1ccc(-c2c(C(OC(C)(C)C)C(=O)O)n(C)c(=O)c3ccccc23)cc1` (stereo not shown) [Example 49, 2-(tert-butoxy)-2-{4-[4-(methoxymethyl)phenyl]-2-methyl-1-oxo-1,2-dihydroisoquinolin-3-yl}acetic acid], the IC50 under setting [1] was determined as 15600 nM. The same measure, in the same setting: in the case of `Cn1c(C(OC(C)(C)C)C(=O)O)c(-c2cc(Cl)cc(Cl)c2)c2ccccc2c1=O` (stereo not shown) [Example 12, 2-(tert-butoxy)-2-[4-(3,5-dichlorophenyl)-2-methyl-1-oxo-1,2-dihydroisoquinolin-3-yl]acetic acid] it was 36700 nM. For the compound `COCCOc1ccc2c(-c3ccc4c(c3C)CCCO4)c(C(OC(C)(C)C)C(=O)O)n(C)c(=O)c2c1` (stereo not shown) [Example 81, 2-(tert-butoxy)-2-[7-(2-methoxyethoxy)-2-methyl-4-(5-methyl-3,4-dihydro-2H-1-benzopyran-6-yl)-1-oxo-1,2-dihydroisoquinolin-3-yl]acetic acid], the half-inhibitory concentration (IC50) under setting [1] was 440 nM.

Turning to `Cc1ccc(-c2c(C(OC(C)(C)C)C(=O)O)n(C)c(=O)c3cc(CNS(C)(=O)=O)ccc23)cc1C` (stereo not shown) [Example 187, 2-(tert-butoxy)-2-(4-(3,4-dimethylphenyl)-2-methyl-7-(methylsulfonamidomethyl)-1-oxo-1,2-dihydroisoquinolin-3-yl)acetic acid], the IC50 under setting [1] was found to be 22900 nM. Same read-out and setting: in the case of `Cc1c(-c2c(C(OC(C)(C)C)C(=O)O)n(C)c(=O)c3cc(OCc4ccc(F)cn4)ccc23)cc(F)c2c1CCCO2` (stereo not shown) [Example 101, 2-(tert-butoxy)-2-[4-(8-fluoro-5-methyl-3,4-dihydro-2H-1-benzopyran-6-yl)-7-[(5-fluoropyridin-2-yl)methoxy]-2-methyl-1-oxo-1,2-dihydroisoquinolin-3-yl]acetic acid] it was 290 nM.

For `Cc1c(-c2c([C@H](OC(C)(C)C)C(=O)O)n(C)c(=O)c3ccccc23)cc(F)c2c1CCCO2` (atropisomer, axis not shown; (M)) [Example 159, (2S)(M)-2-(tert-butoxy)-2-(4-(8-fluoro-5-methylchroman-6-yl)-2-methyl-1-oxo-1,2-dihydroisoquinolin-3-yl)acetic acid], the IC50 (read-out: HIV MT4 Assay IC50, HTLV-1 transformed cell line MT-4, 96 hours, cell titer glo, 10 point dose response curve) was determined as 30 nM.

In the case of `Cc1c(-c2c(C(OC(C)(C)C)C(=O)O)n(C)c(=O)c3cc(OCc4cccnc4)ccc23)ccc2c1CCCO2` (stereo not shown) [Example 97, 2-(tert-butoxy)-2-[2-methyl-4-(5-methyl-3,4-dihydro-2H-1-benzopyran-6-yl)-1-oxo-7-(pyridin-3-ylmethoxy)-1,2-dihydroisoquinolin-3-yl]acetic acid], under setting [1], the 50% inhibitory concentration (IC50) turned out to be 370 nM.

For `Cc1c(-c2c([C@H](OC(C)(C)C)C(=O)O)n(C)c(=O)c3cc(OCc4ccccn4)ccc23)ccc2c1CCCO2` [Example 144, (2S)-2-(tert-butoxy)-2-[2-methyl-4-(5-methyl-3,4-dihydro-2H-1-benzopyran-6-yl)-1-oxo-7-(pyridin-2-ylmethoxy)-1,2-dihydroisoquinolin-3-yl]acetic acid], under setting [1], the half-maximal inhibitory concentration (IC50) was 40 nM. Same read-out and setting: then `Cc1c(-c2c([C@H](OC(C)(C)C)C(=O)O)n(C)c(=O)c3cc(OCc4ccc(F)cc4F)ccc23)cc(F)c2c1CCCO2` [Example 107, (2S)-2-(tert-butoxy)-2-{7-[(2,4-difluorophenyl)methoxy]-4-(8-fluoro-5-methyl-3,4-dihydro-2H-1-benzopyran-6-yl)-2-methyl-1-oxo-1,2-dihydroisoquinolin-3-yl}acetic acid], with 20 nM; and `Cc1cc(C)c(-c2c(C(OC(C)(C)C)C(=O)O)n(C)c(=O)c3ccccc23)cc1C` (stereo not shown) [Example 43, 2-(tert-butoxy)-2-[2-methyl-1-oxo-4-(2,4,5-trimethylphenyl)-1,2-dihydroisoquinolin-3-yl]acetic acid], with 370 nM. On the same count and under the same terms, in the case of `Cc1c(-c2c(C(OC(C)(C)C)C(=O)O)n(C)c(=O)c3ccccc23)cc(Cl)c2c1CCCO2` (stereo not shown) [Example 70, 2-(tert-butoxy)-2-[4-(8-chloro-5-methyl-3,4-dihydro-2H-1-benzopyran-6-yl)-2-methyl-1-oxo-1,2-dihydroisoquinolin-3-yl]acetic acid] it was 1230 nM; in that of `Cc1c(-c2c([C@H](OC(C)(C)C)C(=O)O)n(C)c(=O)c3cc(OCCF)ccc23)ccc2c1CCCO2` [Example 141, (2S)-2-(tert-butoxy)-2-[7-(2-fluoroethoxy)-2-methyl-4-(5-methyl-3,4-dihydro-2H-1-benzopyran-6-yl)-1-oxo-1,2-dihydroisoquinolin-3-yl]acetic acid], 30 nM; in that of `Cc1c(-c2c(C(OC(C)(C)C)C(=O)O)n(C)c(=O)c3cc(OCC(=O)O)ccc23)ccc2c1CCCO2` (stereo not shown) [Example 122, 2-({3-[(tert-butoxy)(carboxy)methyl]-2-methyl-4-(5-methyl-3,4-dihydro-2H-1-benzopyran-6-yl)-1-oxo-1,2-dihydroisoquinolin-7-yl}oxy)acetic acid], 50000 nM. Take `Cn1c(C(OC(C)(C)C)C(=O)O)c(-c2ccc(Cl)c(Cl)c2)c2ccccc2c1=O` (stereo not shown) [Example 11, 2-(tert-butoxy)-2-[4-(3,4-dichlorophenyl)-2-methyl-1-oxo-1,2-dihydroisoquinolin-3-yl]acetic acid]: under setting [1], the half-inhibitory concentration (IC50) came out at 14800 nM. Same read-out and setting: in the case of `Cn1c(C(OC(C)(C)C)C(=O)O)c(-c2ccc3c(c2)NCCO3)c2ccccc2c1=O` (stereo not shown) [Example 82, 2-(tert-butoxy)-2-[4-(3,4-dihydro-2H-1,4-benzoxazin-6-yl)-2-methyl-1-oxo-1,2-dihydroisoquinolin-3-yl]acetic acid] it was 7400 nM; in that of `Cc1c(-c2c(C(OC(C)(C)C)C(=O)O)n(C)c(=O)c3cc(OCCF)ccc23)ccc2c1CCCO2` (stereo not shown) [Example 89, 2-(tert-butoxy)-2-[7-(2-fluoroethoxy)-2-methyl-4-(5-methyl-3,4-dihydro-2H-1-benzopyran-6-yl)-1-oxo-1,2-dihydroisoquinolin-3-yl]acetic acid], 400 nM; in that of `Cn1c(C(OC(C)(C)C)C(=O)O)c(-c2ccc3c(c2Cl)OCCC3)c2ccccc2c1=O` (stereo not shown) [Example 37, 2-(tert-butoxy)-2-[4-(8-chloro-3,4-dihydro-2H-1-benzopyran-7-yl)-2-methyl-1-oxo-1,2-dihydroisoquinolin-3-yl]acetic acid], 33200 nM.

For the compound `CCn1c(C(OC(C)(C)C)C(=O)O)c(-c2ccc3c(c2C)CCCO3)c2ccccc2c1=O` (stereo not shown) [Example 77, 2-(tert-butoxy)-2-[2-ethyl-4-(5-methyl-3,4-dihydro-2H-1-benzopyran-6-yl)-1-oxo-1,2-dihydroisoquinolin-3-yl]acetic acid], the IC50 under setting [1] is 490 nM.

In the case of `Cc1c(-c2c([C@H](OC(C)(C)C)C(=O)O)n(C)c(=O)c3cc(-c4ccccc4F)ccc23)cc(F)c2c1CCCO2` (atropisomer, axis not shown; (M)) [Example 211, (S)(M)-2-(tert-butoxy)-2-(4-(8-fluoro-5-methylchroman-6-yl)-7-(2-fluorophenyl)-2-methyl-1-oxo-1,2-dihydroisoquinolin-3-yl)acetic acid], under setting [1], the half-inhibitory concentration (IC50) was determined as 20 nM.

Turning to `Cc1c(-c2c(C(OC(C)(C)C)C(=O)O)n(C)c(=O)c3cc(OCCN(C)C)ccc23)ccc2c1CCCO2` (stereo not shown) [Example 85, 2-(tert-butoxy)-2-{7-[2-(dimethylamino)ethoxy]-2-methyl-4-(5-methyl-3,4-dihydro-2H-1-benzopyran-6-yl)-1-oxo-1,2-dihydroisoquinolin-3-yl}acetic acid], the IC50 under setting [1] was 7630 nM.
